Patent US10081667B2, “Composition and method for therapeutic agent delivery during pregnancy” (University of Mississippi Medical Center, priority 2013, dated 2018)
Where no end group is shown, it is not given here.

How the values were obtained:
[1] = Pharmacokinetics and biodistribution of SynB1-ELP-p50 versus free p50 peptide in pregnant rats
[2] = test system: human umbilical vein endothelial cells (HUVECs); test: HUVEC proliferation, MTS cell proliferation assay; assay type: cell-based; conditions: 72 h exposure
Experimental: FIG. 9 is a bar graph showing ELP-VEGF stimulation of HUVEC proliferation. HUVEC cell proliferation was determined after 72 h exposure to ELP, VEGF, or ELP-VEGF at the indicated concentrations using the MTS cell proliferation assay.
Proliferation of human umbilical vein endothelial cells (HUVECs) is stimulated when the cell are exposed to VEGF.

[3] = ELP-VEGF pharmacokinetics and biodistribution in mice after bolus IV; assay type: in vivo, C57/B16 mice
Experimental: FIG. 12 includes graphs showing ELP-VEGF pharmacokinetics and biodistribution. FIG. 12A. Fluorescently labeled free VEGF or ELP-VEGF were administered by IV injection to C57/B16 mice. Plasma levels were determined by direct fluorescence quantitation and fit to a two-compartment pharmacokinetic model. FIG. 12B. […] FIG. 12D.
In addition to examining the ELP-VEGF activity in vitro, the pharmacokinetics (PK) and biodistribution of ELP-VEGF in comparison to free VEGF121 is also determined. Both free VEGF121 and ELP-VEGF were fluorescently labeled, and their PK and biodistribution were determined in mice after bolus intravenous administration. […] This is consistent with other reports of approximately a 30 minute half-life for recombinant VEGF in humans. ELP-VEGF cleared more slowly than free VEGF121 (FIG. 12A). […] Four hours after the infusion, the biodistribution was determined by ex vivo whole organ fluorescence imaging.

| initial plasma levels relative to SynB1-ELP-p50 levels ([1]; 100 mg/kg single bolus, pregnant rats) | total placental levels relative to SynB1-ELP-p50 ([1]; four hours after injection) | Molecule | entry into fetal circulation / pups ([1]; four hours after injection) | stimulation of HUVEC proliferation [2] | terminal plasma half-life ([3]; bolus IV, 2-compartment PK model) | organ accumulation, ex vivo whole organ fluorescence imaging ([3]; four hours after the infusion) |
| --- | --- | --- | --- | --- | --- | --- |
| about 100 fold lower | thirty fold lower | VQRKRQKLMP [p50 peptide] | freely entered the fetal circulation and was visible in the pups | – | – | – |
| – | – | VEGF121: free recombinant vascular endothelial growth factor VEGF121, comparator (protein, synthetic ELP-VEGF sequences, free recombinant vascular endothelial growth factor VEGF121, comparator) MSKGPGVGVPGAGVPGGGVPGAGVPGGGVPGAGVPGGGVPGAGVPGGGVPGAGVPGGGVPGAGVPGGGVPGAGVPGGGVPGAGVPGVGVPGAGVPGGGVPGAGVPGGGVPGAGVPGGGVPGAGVPGGGVPGAGVPGGGVPGAGVPGGGVPGAGVPGGGVPGAGVPGVGVPGAGVPGGGVPGAGVPGGGVPGAGVPGGGVPGAGVPGGGVPGAGVPGGGVPGAGVPGGGVPGAGVPGGGVPGAGVPGVGVPGAGVPGGGVPGAGVPGGGVPGAGVPGGGVPGAGVPGGGVPGAGVPGGGVPGAGVPGGGVPGAGVPGGGVPGAGVPGVGVPGAGVPGGGVPGAGVPGGGVPGAGVPGGGVPGAGVPGGGVPGAGVPGGGVPGAGVPGGGVPGAGVPGGGVPGAGVPGVGVPGAGVPGGGVPGAGVPGGGVPGAGVPGGGVPGAGVPGGGVPGAGVPGGGVPGAGVPGGGVPGAGVPGGGVPGAGVPGVGVPGAGVPGGGVPGAGVPGGGVPGAGVPGGGVPGAGVPGGGVPGAGVPGGGVPGAGVPGGGVPGAGVPGGGVPGAGVPGVGVPGAGVPGGGVPGAGVPGGGVPGAGVPGGGVPGAGVPGGGVPGAGVPGGGVPGAGVPGGGVPGAGVPGGGVPGAGVPGVGVPGAGVPGGGVPGAGVPGGGVPGAGVPGGGVPGAGVPGGGVPGAGVPGGGVPGAGVPGGGVPGAGVPGGGVPGAGVPGVGVPGAGVPGGGVPGAGVPGGGVPGAGVPGGGVPGAGVPGGGVPGAGVPGGGVPGAGVPGGGVPGAGVPGGGVPGAGVPGWPGSGAPMAEGGGQNHHEVVKFMDVYQRSYCHPIETLVDIFQEYPDEIEYIFKPSCVPLMRCGGCCNDEGLECVPTEESNITMQIMRIKPHQGQHIGEMSFLQHNKCECRPKKDRARQEKCDKPRR | – | stimulated HUVEC proliferation with equal potency | approximately 30 minutes | accumulated most highly in the kidneys and the liver |
